Measurements taken from ChEMBL document CHEMBL3822442, “Synthesis and Pharmacological Characterization of Novel Glucagon-like Peptide-2 (GLP-2) Analogues with Low Systemic Clearance” (J Med Chem, 2016).
The source made the active and inactive calls. The calls are words filed in the database; no cut-off is given here.

Key:
[1] = biological target: T1, Glucagon-like peptide 2 receptor (Homo sapiens) (UniProt O95838); assay: Potency index, ratio of compound EC50 to compound 2 EC50 for human GLP2R expressed in HEK293 cells; type: cell-based
T1 sequence (whole entry): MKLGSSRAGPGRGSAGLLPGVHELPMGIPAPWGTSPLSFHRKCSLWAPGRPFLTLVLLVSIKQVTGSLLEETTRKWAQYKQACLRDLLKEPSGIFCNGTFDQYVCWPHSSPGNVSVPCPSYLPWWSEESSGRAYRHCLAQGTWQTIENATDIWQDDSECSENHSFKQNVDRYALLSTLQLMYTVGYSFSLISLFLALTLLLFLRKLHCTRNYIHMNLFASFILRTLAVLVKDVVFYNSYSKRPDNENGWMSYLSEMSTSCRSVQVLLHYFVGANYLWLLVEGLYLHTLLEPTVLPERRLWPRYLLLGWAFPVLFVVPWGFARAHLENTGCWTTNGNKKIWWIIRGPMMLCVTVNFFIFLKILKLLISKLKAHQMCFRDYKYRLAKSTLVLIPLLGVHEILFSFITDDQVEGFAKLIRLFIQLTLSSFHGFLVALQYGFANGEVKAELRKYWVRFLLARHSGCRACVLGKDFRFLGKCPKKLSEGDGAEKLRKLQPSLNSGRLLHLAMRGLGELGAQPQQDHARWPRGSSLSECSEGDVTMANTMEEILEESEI

[2] = biological target: T2, Glucagon-like peptide 2 receptor (Homo sapiens, UniProt O95838); assay: Agonist activity at human GLP2R expressed in HEK293 cells after 5 hrs by luciferase reporter gene assay; type: cell-based
T2 sequence (O95838 whole entry): T1 sequence (whole entry)

[3] = biological target: Glucagon-like peptide 1 receptor (Homo sapiens, UniProt P43220); assay: Agonist activity at human GLP1R expressed in HEK293 cells after 5 hrs by luciferase reporter gene assay; type: cell-based
Sequence of Glucagon-like peptide 1 receptor (P43220 whole entry): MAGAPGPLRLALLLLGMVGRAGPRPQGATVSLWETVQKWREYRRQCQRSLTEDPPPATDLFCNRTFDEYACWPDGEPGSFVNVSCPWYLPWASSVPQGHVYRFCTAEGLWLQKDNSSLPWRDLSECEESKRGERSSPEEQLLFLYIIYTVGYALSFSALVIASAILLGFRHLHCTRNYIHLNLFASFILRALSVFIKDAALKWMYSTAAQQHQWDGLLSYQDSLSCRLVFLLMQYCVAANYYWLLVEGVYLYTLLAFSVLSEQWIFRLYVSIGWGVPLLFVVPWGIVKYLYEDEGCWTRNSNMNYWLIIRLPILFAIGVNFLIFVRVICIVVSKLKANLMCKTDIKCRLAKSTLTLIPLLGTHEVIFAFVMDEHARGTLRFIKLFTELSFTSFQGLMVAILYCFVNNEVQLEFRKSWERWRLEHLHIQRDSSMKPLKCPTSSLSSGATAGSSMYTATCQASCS

HEK293 = assay: Selectivity ratio of EC50 for human GLP1R expressed in HEK293 cells to EC50 for human GLP2R expressed in HEK293; type: cell-based
[4] = biological target: Glucagon receptor (Homo sapiens) (UniProt P47871); assay: Agonist activity at human GCGR expressed in HEK293 cells after 5 hrs by luciferase reporter gene assay; type: cell-based
Sequence of Glucagon receptor (Homo sapiens) (P47871 whole entry): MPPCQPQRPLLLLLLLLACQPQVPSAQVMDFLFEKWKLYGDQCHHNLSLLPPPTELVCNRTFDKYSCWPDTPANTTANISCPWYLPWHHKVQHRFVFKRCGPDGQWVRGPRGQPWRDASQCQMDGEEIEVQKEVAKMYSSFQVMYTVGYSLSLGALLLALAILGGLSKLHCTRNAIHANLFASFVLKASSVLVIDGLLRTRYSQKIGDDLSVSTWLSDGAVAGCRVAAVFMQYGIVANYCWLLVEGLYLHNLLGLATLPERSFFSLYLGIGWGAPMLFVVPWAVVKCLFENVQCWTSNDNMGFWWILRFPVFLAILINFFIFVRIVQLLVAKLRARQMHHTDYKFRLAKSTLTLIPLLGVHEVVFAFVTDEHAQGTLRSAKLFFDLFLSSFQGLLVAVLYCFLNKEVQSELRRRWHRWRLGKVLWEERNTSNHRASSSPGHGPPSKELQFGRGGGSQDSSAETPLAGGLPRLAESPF

[5] = Systemic clearance in Sprague-Dawley rat at 0.2 mg/kg, iv through cassette dosing measured up to 300 mins by LC/MS/MS analysis; type: ADME, organism-based; details: in vivo

| Molecule | Ratio EC50 [1] | EC50 [2] | EC50 [3] | Ratio EC50 (HEK293) | Activity [4] | clearance [5] |
| --- | --- | --- | --- | --- | --- | --- |
| CCCCC(NC(=O)[C@H](CCC(=O)O)NC(=O)[C@H](CC(=O)O)NC(=O)[C@H](CO)NC(=O)[C@H](Cc1ccccc1)NC(=O)[C@H](CO)NC(=O)CNC(=O)[C@H](CC(=O)O)NC(=O)CNC(=O)[C@@H](N)Cc1cnc[nH]1)C(=O)N[C@H](CC(N)=O)C(=O)N[C@H](C(=O)N[C@H](C(=O)N[C@@H](CC(C)C)C(=O)N[C@@H](CC(=O)O)C(=O)N[C@@H](CC(N)=O)C(=O)N[C@@H](CC(C)C)C(=O)N[C@@H](C)C(=O)N[C@@H](C)C(=O)N[C@@H](CCCNC(=N)N)C(=O)N[C@@H](CC(=O)O)C(=O)N[C@@H](Cc1ccccc1)C(=O)N[C@H](C(=O)N[C@@H](CC(N)=O)C(=O)N[C@@H](Cc1c[nH]c2ccccc12)C(=O)N[C@@H](CC(C)C)C(=O)N[C@H](C(=O)N[C@@H](CCC(N)=O)C(=O)N[C@H](C(=O)N[C@@H](CCCCN)C(N)=O)[C@@H](C)O)[C@@H](C)CC)[C@@H](C)CC)[C@@H](C)CC)[C@@H](C)O (some centres not stated) | 0.73 | 0.16 nM | > 1000 nM | > 6200 | inactive | – |
| CCCCC(NC(=O)[C@H](CCC(=O)O)NC(=O)[C@H](CC(=O)O)NC(=O)[C@H](CO)NC(=O)[C@H](Cc1ccccc1)NC(=O)[C@H](CO)NC(=O)CNC(=O)[C@H](CC(=O)O)NC(=O)CNC(=O)[C@@H](N)Cc1cnc[nH]1)C(=O)N[C@@H](CC(N)=O)C(=O)N[C@@H](C(=O)N[C@H](C(=O)N[C@@H](CC(C)C)C(=O)N[C@@H](CC(=O)O)C(=O)N[C@@H](CC(N)=O)C(=O)N[C@@H](CC(C)C)C(=O)N[C@@H](C)C(=O)N[C@@H](C)C(=O)N[C@@H](CCCNC(=N)N)C(=O)N[C@@H](CC(=O)O)C(=O)N[C@@H](Cc1ccccc1)C(=O)N[C@H](C(=O)N[C@@H](CC(N)=O)C(=O)N[C@@H](Cc1c[nH]c2ccccc12)C(=O)N[C@@H](CC(C)C)C(=O)N[C@H](C(=O)N[C@@H](CCC(N)=O)C(=O)N[C@H](C(=O)N[C@@H](CCCCN)C(N)=O)[C@@H](C)O)[C@@H](C)CC)[C@@H](C)CC)[C@@H](C)CC)[C@H](C)O (some centres not stated) | 6.8 | 1.5 nM | > 1000 nM | > 660 | inactive | – |
| CCCCC(NC(=O)[C@H](CCC(=O)O)NC(=O)[C@H](CC(=O)O)NC(=O)[C@H](CO)NC(=O)[C@H](Cc1ccccc1)NC(=O)[C@H](CO)NC(=O)CNC(=O)[C@H](CC(=O)O)NC(=O)CNC(=O)[C@@H](N)Cc1cnc[nH]1)C(=O)N[C@@H](CC(N)=O)C(=O)N[C@H](C(=O)N[C@H](C(=O)N[C@@H](CC(C)C)C(=O)N[C@@H](CC(=O)O)C(=O)N[C@@H](CC(N)=O)C(=O)N[C@H](CC(C)C)C(=O)N[C@@H](C)C(=O)N[C@@H](C)C(=O)N[C@@H](CCCNC(=N)N)C(=O)N[C@@H](CC(=O)O)C(=O)N[C@@H](Cc1ccccc1)C(=O)N[C@H](C(=O)N[C@@H](CC(N)=O)C(=O)N[C@@H](Cc1c[nH]c2ccccc12)C(=O)N[C@@H](CC(C)C)C(=O)N[C@H](C(=O)N[C@@H](CCC(N)=O)C(=O)N[C@H](C(=O)N[C@@H](CCCCN)C(N)=O)[C@@H](C)O)[C@@H](C)CC)[C@@H](C)CC)[C@@H](C)CC)[C@@H](C)O (some centres not stated) | 12 | 2.6 nM | > 1000 nM | > 380 | inactive | – |
| H-HGDGSFSDEMNTILDNLAARDFINWLIQT-NH2 | 7 | 0.63 nM | > 1000 nM | > 1500 | – | – |
| H-HGDGSFSDEMNTILDNLAARDFINWLI-NH2 | 12 | 1.1 nM | > 1000 nM | > 900 | – | – |
| CCCCC(NC(=O)[C@H](CCC(=O)O)NC(=O)[C@H](CC(=O)O)NC(=O)[C@H](CO)NC(=O)[C@H](Cc1ccccc1)NC(=O)[C@H](CO)NC(=O)CNC(=O)[C@H](CC(=O)O)NC(=O)CNC(=O)[C@@H](N)Cc1cnc[nH]1)C(=O)N[C@@H](CC(N)=O)C(=O)N[C@H](C(=O)N[C@H](C(=O)N[C@@H](CC(C)C)C(=O)N[C@@H](CC(=O)O)C(=O)N[C@@H](CC(N)=O)C(=O)N[C@@H](CC(C)C)C(=O)N[C@H](C)C(=O)N[C@@H](C)C(=O)N[C@@H](CCCNC(=N)N)C(=O)N[C@@H](CC(=O)O)C(=O)N[C@@H](Cc1ccccc1)C(=O)N[C@H](C(=O)N[C@@H](CC(N)=O)C(=O)N[C@@H](Cc1c[nH]c2ccccc12)C(=O)N[C@@H](CC(C)C)C(=O)N[C@H](C(=O)N[C@@H](CCC(N)=O)C(=O)N[C@H](C(=O)N[C@@H](CCCCN)C(N)=O)[C@@H](C)O)[C@@H](C)CC)[C@@H](C)CC)[C@@H](C)CC)[C@@H](C)O (some centres not stated) | 20 | 4.5 nM | > 1000 nM | > 220 | inactive | – |
| CCCCC(NC(=O)[C@H](CCC(=O)O)NC(=O)[C@H](CC(=O)O)NC(=O)[C@H](CO)NC(=O)[C@H](Cc1ccccc1)NC(=O)[C@H](CO)NC(=O)CNC(=O)[C@H](CC(=O)O)NC(=O)CNC(=O)[C@@H](N)Cc1cnc[nH]1)C(=O)N[C@@H](CC(N)=O)C(=O)N[C@H](C(=O)N[C@H](C(=O)N[C@@H](CC(C)C)C(=O)N[C@@H](CC(=O)O)C(=O)N[C@@H](CC(N)=O)C(=O)N[C@@H](CC(C)C)C(=O)N[C@@H](C)C(=O)N[C@@H](C)C(=O)N[C@H](CCCNC(=N)N)C(=O)N[C@@H](CC(=O)O)C(=O)N[C@@H](Cc1ccccc1)C(=O)N[C@H](C(=O)N[C@@H](CC(N)=O)C(=O)N[C@@H](Cc1c[nH]c2ccccc12)C(=O)N[C@@H](CC(C)C)C(=O)N[C@H](C(=O)N[C@@H](CCC(N)=O)C(=O)N[C@H](C(=O)N[C@@H](CCCCN)C(N)=O)[C@@H](C)O)[C@@H](C)CC)[C@@H](C)CC)[C@@H](C)CC)[C@@H](C)O (some centres not stated) | 10 | 2.2 nM | > 1000 nM | > 450 | inactive | – |
| H-HGDGSFSDEMNTILDNLAARDFINWLIQTKIT-NH2 | 3.2 | 0.29 nM | > 1000 nM | > 3400 | – | – |
| H-HGDGSFSDEMNTILDNLAARDFINWLIQ-NH2 | 12 | 1.1 nM | > 1000 nM | > 900 | – | – |
| CCCCC(NC(=O)[C@H](CCC(=O)O)NC(=O)[C@H](CC(=O)O)NC(=O)[C@H](CO)NC(=O)[C@H](Cc1ccccc1)NC(=O)[C@H](CO)NC(=O)CNC(=O)[C@H](CC(=O)O)NC(=O)CNC(=O)[C@@H](N)Cc1cnc[nH]1)C(=O)N[C@H](Cc1cnc[nH]1)C(=O)N[C@H](C(=O)N[C@H](C(=O)N[C@@H](CC(C)C)C(=O)N[C@@H](CC(=O)O)C(=O)N[C@@H](CC(N)=O)C(=O)N[C@@H](CC(C)C)C(=O)N[C@@H](C)C(=O)N[C@@H](C)C(=O)N[C@@H](CCCNC(=N)N)C(=O)N[C@@H](CC(=O)O)C(=O)N[C@@H](Cc1ccccc1)C(=O)N[C@H](C(=O)N[C@@H](CC(N)=O)C(=O)N[C@@H](Cc1c[nH]c2ccccc12)C(=O)N[C@@H](CC(C)C)C(=O)N[C@H](C(=O)N[C@@H](CCC(N)=O)C(=O)N[C@H](C(=O)N[C@@H](CCCCN)C(N)=O)[C@@H](C)O)[C@@H](C)CC)[C@@H](C)CC)[C@@H](C)CC)[C@@H](C)O (some centres not stated) | – | 0.2 nM | > 1000 nM | > 5000 | inactive | 0.73 mL/min/kg |
| H-HGDGSFSDEMNTILDNLAARDFINWLIQTKI-NH2 | 5.3 | 0.48 nM | > 1000 nM | > 2000 | – | – |
| H-HGDGSFSDEMNTILDNLAARDFINW-NH2 | > 330 | > 30 nM | > 1000 nM | – | – | – |
| CCCCC(NC(=O)[C@H](CCC(=O)O)NC(=O)[C@H](CC(=O)O)NC(=O)[C@H](CO)NC(=O)[C@H](Cc1ccccc1)NC(=O)[C@H](CO)NC(=O)CNC(=O)[C@H](CC(=O)O)NC(=O)CNC(=O)[C@@H](N)Cc1cnc[nH]1)C(=O)N[C@@H](CC(N)=O)C(=O)N[C@H](C(=O)N[C@H](C(=O)N[C@@H](CC(C)C)C(=O)N[C@@H](CC(=O)O)C(=O)N[C@@H](CC(N)=O)C(=O)N[C@@H](CC(C)C)C(=O)N[C@@H](C)C(=O)N[C@@H](C)C(=O)N[C@@H](CCCNC(=N)N)C(=O)N[C@@H](CC(=O)O)C(=O)N[C@@H](Cc1ccccc1)C(=O)N[C@H](C(=O)N[C@@H](CC(N)=O)C(=O)N[C@H](Cc1c[nH]c2ccccc12)C(=O)N[C@@H](CC(C)C)C(=O)N[C@H](C(=O)N[C@@H](CCC(N)=O)C(=O)N[C@H](C(=O)N[C@@H](CCCCN)C(N)=O)[C@@H](C)O)[C@@H](C)CC)[C@@H](C)CC)[C@@H](C)CC)[C@@H](C)O (some centres not stated) | > 130 | > 30 nM | > 1000 nM | – | inactive | – |
